This note sets out measurements from publication PMC3568144, “Pseudomonas aeruginosa PA1006 Is a Persulfide-Modified Protein That Is Critical for Molybdenum Homeostasis” (PLoS ONE, 2013).

For series [1], the target named is T1, His6-PA3667/CsdA (Pseudomonas aeruginosa, UniProt Q9HXX3).
T1 construct: gene csd; full length, His6 tag kept, pET24D, E. coli BL21pLysS, Ni-NTA and MonoQ; dimer (~100 kDa) by gel filtration
T1 sequence (Q9HXX3 1-401): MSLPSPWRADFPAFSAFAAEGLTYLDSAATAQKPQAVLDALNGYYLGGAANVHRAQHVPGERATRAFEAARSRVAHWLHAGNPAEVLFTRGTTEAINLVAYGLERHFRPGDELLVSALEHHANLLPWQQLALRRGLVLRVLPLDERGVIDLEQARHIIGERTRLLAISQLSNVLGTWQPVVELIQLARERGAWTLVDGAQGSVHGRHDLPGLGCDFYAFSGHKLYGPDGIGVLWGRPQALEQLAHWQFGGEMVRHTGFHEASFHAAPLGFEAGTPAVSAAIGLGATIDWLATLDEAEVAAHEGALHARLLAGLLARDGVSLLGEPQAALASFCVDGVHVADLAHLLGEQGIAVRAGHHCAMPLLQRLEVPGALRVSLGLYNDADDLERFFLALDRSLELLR
Kind of series: […] transfer to the enzyme, non-reducing SDS-PAGE with phosphorimaging. It is filed as biochemical. Conditions: labelled compound; 50 µM 35S Cys, 2 µM enzyme, pH 7.5, 37°C, 10 min.

In series [2] the target is T1, His6-PA3667/CsdA. Kind of series: absorption spectrum of purified enzyme (~[…] nm band, reducible with sodium borohydride). It is filed as binding. Conditions: 100 µM cofactor in purification and storage buffers.
Series [3] concerns the molecule itself. As to the kind of experiment: SEC; analytical gel filtration, Superose 6 column (GE Life Sciences), FPLC.

With `N[C@@H](CS)C(=O)O` [Cys], on His6-PA3667/CsdA [1], the “35S transfer to the enzyme, non-reducing SDS-PAGE with phosphorimaging” value was “PA3667/CsdA displayed Cys desulfurase activity and was capable of transferring”.
Consider `Cc1ncc(COP(=O)(O)O)c(C=O)c1O` [pyridoxal phosphate], for which the “absorption spectrum of purified enzyme (~400 nm band, reducible with sodium boro)” value at His6-PA3667/CsdA [2] is “absorbance spectrum of His6-PA3667/CsdA indicated that it contained a pyridoxal phosphate cofactor”.

B1: His6-PA3667/CsdA purified from E. coli (enzyme, Pseudomonas aeruginosa, UniProt Q9HXX3 1-401, looked up)
chain: T1 sequence (Q9HXX3 1-401)
notes: PA3667/CsdA, cysteine desulfurase, Pseudomonas aeruginosa; Contains a pyridoxal phosphate cofactor; 100 µM pyridoxal phosphate was added to the buffers; source: E. coli BL21pLysS (pET24D), purified (Ni2+-NTA agarose, MonoQ)
For B1, the “stoichiometry N” value in series [3] stood at 2.

Broadly, the stoichiometry N is the number of molecules, sites or subunits per partner or assembly.
